Test results reported in patent US12324841B2, “Methods of treating cancer with a combination of an anti-PD-1 antibody and an anti-tissue factor antibody-drug conjugate” (GENMAB A/S, priority 2018, dated 2025).

Assays:
[1] = tested on: MDA-MB-231 cells (breast adenocarcinoma); test: MDA-MB-231 xenograft model in humanized NSG mice; format: in vivo; details: IV, weekly
Experimental: Mice were subcutaneously inoculated with 5×10^6 MDA-MB-231 cells (breast adenocarcinoma; American Tissue Culture Collection (ATCC), cat. no. HTB-26), in 100 μL phosphate-buffered saline (PBS). Before inoculation, cells were cultured in DMEM with high glucose and HEPES without L-glutamine (Lonza, cat. no. BE12-[…]), 10% (v/v) donor bovine serum with iron New Zealand Origin (Thermo Fisher Scientific, DBSI, cat. no. 10371-029), 2 mM L-glutamine (Lonza, cat. no. BE17-[…]), 1 mM Na-pyruvate (Lonza, cat. no. BE13-[…]), MEM non-essential amino acids (Life Technologies, cat. no. 11140) and 1% (v/v) penicillin/streptomycin (Lonza, cat. no. DE17-[…]), in CellSTACK culture chambers (Corning, cat. no. 3313). Tumor size was determined by caliper measurement at least two times a week and tumor volume was calculated as 0.52×length×width^2. […] The first dose of the anti-PD-1 antibody (i.e., pembrolizumab) was 10 mg/kg, followed by 5 mg/kg every five days for a maximum of six treatments. […] The IgG1 isotype control antibody is the b12 antibody which is known to bind to HIV-1 gp120. […] Mice were housed in individually ventilated (IVC) cages, five mice per cage and identified by ear tags. […] Statistical comparison of tumor burden was performed using Mann-Whitney analysis on the last day that all treatment groups were intact. Kaplan-Meier analysis was performed based on tumor volume (>500 mm^3).

[2] = tested on: CD14+ monocyte/macrophages; test: Monocyte/macrophage activation in PBMCs fed killed MDA-MB-231 cells; format: cell-based, human
From the text: FIGS. 7A and 7B is a series of graphs in which Tissue Factor positive MDA-MB-231 cells killed with various agents were fed to human peripheral blood mononuclear cells (PBMCs) and immune activation assessed by increased expression of activations markers on innate CD14+ monocyte/macrophages and induction of chemokine and cytokine production.
Immunogenic cell death, as mediated by MMAE, is regulated cell death that activates adaptive immune responses against antigens from dead and dying tumor cells, and allows for the generation of robust innate immune cell activation and subsequent cytotoxic T cell responses targeted towards specific tumor cell antigens. […] Furthermore, these monocyte/macrophages conditioned by ICD-killed cells promote activation of T cells, as evidenced by production of signature inflammatory cytokines associated with cytotoxic T cell responses.

[3] = tested on: HPAFII (pancreatic carcinoma); test: Western blot analysis of ER stress induction in HPAFII cells; format: cell-based; details: 18 hours (legend: 16 hours)
Experimental: Induction of cell death and release of ICD danger signals occurs concomitant with initiation of an ER stress response. Two Tissue Factor positive cell lines, HPAFII (pancreatic carcinoma) and MDA-MB-231 (breast cell carcinoma) were exposed to tisotumab vedotin ADC, an Isotype-MMAE ADC (H00-MMAE, IgG1 MMAE), or free MMAE for 18 hours and induction of ER stress monitored by western blot analysis. Phosphorylation of inositol-requiring transmembrane kinase/endonuclease 1 (IRE1) was detected after treatment with tisotumab vedotin ADC or MMAE free drug (FIG. 6). […] The ability for auristatins to prime the immune system to recognize tumor antigens opens the door for a myriad of combinatorial therapeutic options.

[4] = compared to IgG1-MMAE ADC or tisotumab alone

Substance: tisotumab vedotin: antibody-drug conjugate comprising an antibody that binds to tissue factor (TF), a protease-cleavable linker, and the microtubule disrupting agent MMAE
- tumor burden as assessed by tumor volume ([1]; tisotumab vedotin alone 0.5 mg/kg): efficiently reduced tumor burden
- tumor burden as assessed by tumor volume ([1]; tisotumab vedotin alone 1.0 mg/kg): efficiently reduced tumor burden
- chemotactic and inflammatory mediators from monocyte/macrophages after uptake of dead cells [2]: elicit strong chemotactic and inflammatory mediators
- monocyte/macrophage activation, CD86 expression by flow cytometry [2, 4]: drove monocyte/macrophage activations
- release of innate chemokines including MIP 1β [2, 4]: induced release of innate chemokines including MIP 1β
- ATF4 cleavage (PERK pathway) [3]: upregulation of ATF4 cleavage
- phosphorylation of IRE1 [3]: detected
- phosphorylation of JNK [3]: increased phosphorylation
